In series [1] the target is Growth hormone secretagogue receptor type 1 (Homo sapiens, UniProt Q92847). The series can be described thus: Inhibition of [125I]ghrelin binding to human recombinant ghrelin receptor membrane preparation.
The nature of series [2]: Clearance value intravenously administered to rats with 5 mg/kg. Format: ADME, organism-based. Also on record: dose 5 mg/kg, route intravenous. The note with it: rat, in vivo, iv.
Series [3] can be described thus: Bioavailability value in rat after oral dose of 20 mg/k. It counts as ADME, organism-based. As to conditions: in vivo, 20 mg/kg, read-out: Bioavailabiility.
Series [4] is described as follows: Volume of distribution value intravenously administered to rats with 5 mg/kg. Format: ADME, organism-based. On the set-up: dose 5 mg/kg, route intravenous. The note with it: rat, in vivo, iv.
Series [5] in a line: Half life value intravenously administered to rats with 5 mg/kg. As to conditions: rat, in vivo, iv. Format: ADME, organism-based. On the set-up: dose 5 mg/kg, route intravenous.
Series [6] is described as follows: Cmax value in rat after oral dose of 20 mg/k. Format: ADME, organism-based. The note with it: in vivo, 20 mg/kg. On the set-up: route oral.

We go through twelve compounds from ChEMBL document CHEMBL1142056, “Structure-activity relationships of the oxindole growth hormone secretagogues” (Bioorg Med Chem Lett, 2005).

Chain of Growth hormone secretagogue receptor type 1 (Q92847 whole entry): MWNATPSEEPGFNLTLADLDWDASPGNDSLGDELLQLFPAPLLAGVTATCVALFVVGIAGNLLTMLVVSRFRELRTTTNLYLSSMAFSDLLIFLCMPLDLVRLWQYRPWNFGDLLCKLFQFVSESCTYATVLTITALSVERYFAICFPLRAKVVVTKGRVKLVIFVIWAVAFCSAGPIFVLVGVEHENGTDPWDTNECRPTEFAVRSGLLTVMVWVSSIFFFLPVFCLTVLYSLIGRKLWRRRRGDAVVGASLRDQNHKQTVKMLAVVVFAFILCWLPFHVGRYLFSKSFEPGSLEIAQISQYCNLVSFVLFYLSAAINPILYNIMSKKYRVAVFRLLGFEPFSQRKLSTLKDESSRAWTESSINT

For the compound `CCN(CC)CCN1C(=O)[C@@](O)(c2cc(Cl)ccc2Cl)c2c1cc(C(N)=O)cc2C(F)(F)F`, the IC50 in series [1] worked out at 0.24 nM.
Still for that read-out and setting: the result for `CCN(CC)CCN1C(=O)[C@@](O)(c2cccc(Cl)c2)c2c1cc(C(N)=O)cc2C(F)(F)F` reads 15 nM; that for `CCN(CC)CCN1C(=O)[C@@](O)(c2c(Cl)cccc2Cl)c2c1cc(C(N)=O)cc2C(F)(F)F`, 4.2 nM; that for `CCN(CC)CCN1C(=O)[C@@](O)(c2ccc(OC)cc2)c2c1cc(C(N)=O)cc2C(F)(F)F`, 106 nM.
`CCN(CC)CCN1C(=O)[C@@](O)(c2cccc(OC)c2)c2c1cc(C(N)=O)cc2C(F)(F)F`: the half-maximal inhibitory concentration (IC50) in series [1] worked out at 77 nM.
In the case of `CCN(CC)CCN1C(=O)[C@@](O)(c2cccc(Cl)c2Cl)c2c1cc(C(N)=O)cc2C(F)(F)F`, the IC50 in series [1] came to 1.6 nM.
As for `CCN(CC)CCN1C(=O)[C@@](O)(c2ccccc2OC)c2c1cc(C(N)=O)cc2C(F)(F)F`, in series [1], the IC50 was 160 nM.
As for `CCN(CC)CCN1C(=O)[C@@](O)(c2ccc(Cl)cc2Cl)c2c1cc(C(N)=O)cc2C(F)(F)F`, the clearance in series [2] stood at 51 mL/min/kg. Also, the bioavailability in series [3] was found to be 28%. Moreover, the Vd in series [4] came out at 5.4 L/kg. The compound also showed a half-life in series [5] of 1.6 h. Also, the IC50 in series [1] is 0.02 nM. Further, the Cmax in series [6] came out at 491 ng/mL.
Regarding `CCN(CC)CCN1C(=O)C(O)(c2ccccc2)c2c1cc(C(N)=O)cc2C(F)(F)F` (configuration not stated), in series [1], the IC50 was determined as 116 nM.
In the case of `CCN(CC)CCN1C(=O)[C@@](O)(c2ccccc2Cl)c2c1cc(C(N)=O)cc2C(F)(F)F`, the IC50 in series [1] is 2.1 nM.
`CCN(CC)CCN1C(=O)C(O)(c2ccccc2Cl)c2c1cc(C(N)=O)cc2C(F)(F)F` (configuration not stated): the IC50 in series [1] was 4 nM.
With `CCN(CC)CCN1C(=O)[C@@](O)(c2ccc(Cl)cc2)c2c1cc(C(N)=O)cc2C(F)(F)F`, the IC50 in series [1] turned out to be 83 nM.

A word on the IC50: it is the point on the concentration scale where inhibition reaches its midpoint. Broadly, the clearance is the rate of elimination divided by the concentration. The term Vd denotes the apparent volume that relates the amount in the body to the concentration in plasma or blood. For orientation: half-life means the time needed for the level to fall by half in the phase considered. Read a high half-life as slow loss. Broadly, the Cmax is the highest concentration seen after dosing.
